Legend:
[1] = molecular target: Adenosine A2A (Homo sapiens (Human), UniProt P29274); experiment: A2A Tag-lite HTRF assay (Example C); details: Tag-lite Adenosine A2A labeled cells, Red antagonist fluorescent ligand 12.5 nM, one-site competitive binding; read-out: A2A_Ki
Protocol: Example C. A2A Tag-Lite® HTRF Assay
Assays were conducted in black low volume 384-well polystyrene plates (Greiner 784076-25) in a final volume of 10 μL. Test compounds were first serially diluted in DMSO and 100 nl added to the plate wells before the addition of other reaction components. The final concentration of DMSO was 1%. Tag-lite® Adenosine A2A labeled cells (CisBio C1TT1A2A) were diluted 1:5 into Tag-lite buffer (CisBio LABMED) and spun 1200 g for 5 mins. The pellet was resuspended at a volume 10.4× the initial cell suspension volume in Tag-lite buffer, and Adenosine A2A Receptor Red antagonist fluorescent ligand (CisBio L0058RED) added at 12.5 nM final concentration. 10 ul of the cell and ligand mix was added to the assay wells and incubated at room temperature for 45 minutes before reading on a PHERAstar FS plate reader (BMG Labtech) with HTRF 337/620/665 optical module. Percent binding of the fluorescent ligand was calculated; where 100 nM of A2A antagonist control ZM 241385 (Tocris 1036) displaces the ligand 100% and 1% DMSO has 0% displacement. The % binding data versus the log of the inhibitor concentration was fitted to a one-site competitive binding model (GraphPad Prism version 7.02) where the ligand constant=12.5 nM and the ligand Kd=1.85 nM.

[2] = molecular target: human adenosine A2B receptor (Homo sapiens (Human), UniProt P29275); experiment: Adenosine A2B receptor cyclic AMP GS assay (Example B); assay type: cell-based; details: HEK-293 cells expressing human A2B, agonist NECA 12 nM, cAMP accumulation (FRET); read-out: A2B_cAMP_EC50
Chain of human adenosine A2B receptor (P29275 whole entry): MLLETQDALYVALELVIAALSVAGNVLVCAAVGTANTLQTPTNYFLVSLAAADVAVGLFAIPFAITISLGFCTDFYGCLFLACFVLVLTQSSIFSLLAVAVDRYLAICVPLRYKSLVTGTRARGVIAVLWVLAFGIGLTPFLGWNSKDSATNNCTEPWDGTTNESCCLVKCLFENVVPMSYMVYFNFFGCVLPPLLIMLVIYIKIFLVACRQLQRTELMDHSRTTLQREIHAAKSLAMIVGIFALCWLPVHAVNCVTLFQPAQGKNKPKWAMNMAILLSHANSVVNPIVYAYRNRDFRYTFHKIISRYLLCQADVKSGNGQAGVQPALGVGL
Protocol: Example B. Adenosine A2B Receptor Cyclic AMP GS Assay
Stably transfected HEK-293 cells expressing the human adenosine A2B receptor (Perkin Elmer) were maintained in MEM culture medium with 10% FBS and 100 μg/ml Geneticin (Life Technologies). 18 to 24 hours prior to assay, geneticin was removed from culture. The cisbio cAMP-GS Dynamic kit utilizing the FRET (Fluorescence Resonance Energy Transfer) technology was used to measure cAMP accumulation in the cells. Compounds of the present disclosure at an appropriate concentration were mixed with 10000 cells/well in white 96 well half area plates (Perkin Elmer) for 30 min at RT gently shaking. Agonist, NECA (R&D Technologies) at 12 nM was added to each well for 60 min at RT gently shaking. Detection reagents, d2-labeled cAMP (acceptor) and anti-cAMP cryptate (donor) were added to each well for 60 min at RT gently shaking. Plates were read on Pherastar (BMG Labtech), fluorescence ratio 665/620 was calculated and EC50 determination was performed by fitting the curve of percent of control versus the log of the compound concentration using GraphPad Prism.

Chain of Adenosine A2A (P29274 whole entry): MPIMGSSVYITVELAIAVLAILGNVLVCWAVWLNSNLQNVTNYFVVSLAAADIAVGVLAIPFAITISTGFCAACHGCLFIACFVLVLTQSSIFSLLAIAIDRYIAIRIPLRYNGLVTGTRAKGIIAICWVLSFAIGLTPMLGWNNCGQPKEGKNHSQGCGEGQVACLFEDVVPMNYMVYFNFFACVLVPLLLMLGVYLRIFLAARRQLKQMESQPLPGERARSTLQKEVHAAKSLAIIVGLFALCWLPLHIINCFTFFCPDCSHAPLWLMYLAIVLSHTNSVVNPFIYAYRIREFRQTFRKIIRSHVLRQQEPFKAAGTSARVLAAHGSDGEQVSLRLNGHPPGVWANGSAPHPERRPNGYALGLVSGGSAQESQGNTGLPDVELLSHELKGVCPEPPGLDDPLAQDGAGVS

Row | Ki [1] [µM] | EC50 [2] [µM] | Compound
1 | ≤ 0.01 | ≤ 0.01 | N#Cc1cccc(-c2nc(N)n3nc(Cn4nnnc4-c4cccc(N)c4)nc3c2-c2ccncn2)c1 [Example 1, 3-(5-amino-2-((5-(3-aminophenyl)-1H-tetrazol-1-yl)methyl)-8-(pyrimidin-4-yl)-[1,2,4]triazolo[1,5-c]pyrimidin-7-yl)benzonitrile]
2 | ≤ 0.01 | ≤ 0.01 | Cc1cccc(-c2nnnn2Cc2nc3c(-c4ccncn4)c(-c4cccc(C#N)c4)nc(N)n3n2)n1 [Example 2, 3-(5-amino-2-((5-(6-methylpyridin-2-yl)-1H-tetrazol-1-yl)methyl)-8-(pyrimidin-4-yl)-[1,2,4]triazolo[1,5-c]pyrimidin-7-yl)benzonitrile]
3 | ≤ 0.01 | 0.01 to 0.1 | COc1cccc(-c2nnnn2Cc2nc3c(-c4ccncn4)c(-c4cccc(C#N)c4)nc(N)n3n2)n1 [Example 3, 3-(5-amino-2-((5-(6-methoxypyridin-2-yl)-1H-tetrazol-1-yl)methyl)-8-(pyrimidin-4-yl)-[1,2,4]triazolo[1,5-c]pyrimidin-7-yl)benzonitrile]
4 | ≤ 0.01 | 0.01 to 0.1 | Cn1cc(-c2c(-c3cccc(C#N)c3)nc(N)n3nc(Cn4nnnc4-c4ccccn4)nc23)ccc1=O [Example 4, 3-(5-amino-8-(1-methyl-6-oxo-1,6-dihydropyridin-3-yl)-2-((5-(pyridin-2-yl)-1H-tetrazol-1-yl)methyl)-[1,2,4]triazolo[1,5-c]pyrimidin-7-yl)benzonitrile]
5 | ≤ 0.01 | 0.01 to 0.1 | Cn1cc(-c2c(-c3cccc(C#N)c3)nc(N)n3nc(Cn4nnnc4-n4cccn4)nc23)ccc1=O [Example 5, 3-(2-((5-(1H-pyrazol-1-yl)-1H-tetrazol-1-yl)methyl)-5-amino-8-(1-methyl-6-oxo-1,6-dihydropyridin-3-yl)-[1,2,4]triazolo[1,5-c]pyrimidin-7-yl)benzonitrile]
6 | ≤ 0.01 | 0.01 to 0.1 | Cn1cc(-c2c(-c3cccc(C#N)c3)nc(N)n3nc(Cn4nnnc4-c4cscn4)nc23)ccc1=O [Example 6, 3-(5-amino-8-(1-methyl-6-oxo-1,6-dihydropyridin-3-yl)-2-((5-(thiazol-4-yl)-1H-tetrazol-1-yl)methyl)-[1,2,4]triazolo[1,5-c]pyrimidin-7-yl)benzonitrile]
7 | ≤ 0.01 | 0.01 to 0.1 | Cn1cc(-c2c(-c3cccc(C#N)c3)nc(N)n3nc(Cn4nnnc4-c4ncccn4)nc23)ccc1=O [Example 7, 3-(5-amino-8-(1-methyl-6-oxo-1,6-dihydropyridin-3-yl)-2-((5-(pyrimidin-2-yl)-1H-tetrazol-1-yl)methyl)-[1,2,4]triazolo[1,5-c]pyrimidin-7-yl)benzonitrile]
8 | ≤ 0.01 | 0.01 to 0.1 | Cn1cc(-c2c(-c3cccc(C#N)c3)nc(N)n3nc(Cn4nnnc4-c4cnccn4)nc23)ccc1=O [Example 8, 3-(5-amino-8-(1-methyl-6-oxo-1,6-dihydropyridin-3-yl)-2-((5-(pyrazin-2-yl)-1H-tetrazol-1-yl)methyl)-[1,2,4]triazolo[1,5-c]pyrimidin-7-yl)benzonitrile]
9 | ≤ 0.01 | 0.01 to 0.1 | Cn1nc(-c2c(-c3cccc(C#N)c3)nc(N)n3nc(Cn4nnnc4-c4ccccn4)nc23)ccc1=O [Example 9, 3-(5-amino-8-(1-methyl-6-oxo-1,6-dihydropyridazin-3-yl)-2-((5-(pyridin-2-yl)-1H-tetrazol-1-yl)methyl)-[1,2,4]triazolo[1,5-c]pyrimidin-7-yl)benzonitrile]
10 | ≤ 0.01 | ≤ 0.01 | N#Cc1cccc(-c2nc(N)n3nc(Cn4nnnc4-c4ccccn4)nc3c2-c2ccncc2)c1 [Example 10, 3-(5-amino-2-((5-(pyridin-2-yl)-1H-tetrazol-1-yl)methyl)-8-(pyridin-4-yl)-[1,2,4]triazolo[1,5-c]pyrimidin-7-yl)benzonitrile]
11 | ≤ 0.01 | ≤ 0.01 | CN(C)c1cc(-c2c(-c3cccc(C#N)c3)nc(N)n3nc(Cn4nnnc4-c4ccccn4)nc23)ccn1 [Example 11, 3-(5-amino-8-(2-(dimethylamino)pyridin-4-yl)-2-((5-(pyridin-2-yl)-1H-tetrazol-1-yl)methyl)-[1,2,4]triazolo[1,5-c]pyrimidin-7-yl)benzonitrile]
12 | ≤ 0.01 | ≤ 0.01 | N#Cc1cccc(-c2nc(N)n3nc(Cn4nnnc4-c4ccccn4)nc3c2-c2ccnc(N)c2)c1 [Example 12, 3-(5-amino-8-(2-aminopyridin-4-yl)-2-((5-(pyridin-2-yl)-1H-tetrazol-1-yl)methyl)-[1,2,4]triazolo[1,5-c]pyrimidin-7-yl)benzonitrile]
13 | ≤ 0.01 | ≤ 0.01 | N#Cc1cccc(-c2nc(N)n3nc(Cc4c(F)cccc4-c4ccncc4)nc3c2-c2ccncc2)c1 [Example 13, 3-(5-amino-2-(2-fluoro-6-(pyridin-4-yl)benzyl)-8-(pyridin-4-yl)-[1,2,4]triazolo[1,5-c]pyrimidin-7-yl)benzonitrile]
14 | ≤ 0.01 | ≤ 0.01 | N#Cc1cccc(-c2nc(N)n3nc(Cc4c(F)cccc4-c4ccnc(N)c4)nc3c2-c2ccnc(N)c2)c1 [Example 14, 3-(5-amino-8-(2-aminopyridin-4-yl)-2-(2-(2-aminopyridin-4-yl)-6-fluorobenzyl)-[1,2,4]triazolo[1,5-c]pyrimidin-7-yl)benzonitrile]
15 | ≤ 0.01 | ≤ 0.01 | Cc1cccnc1CNc1nc2c(-c3ccc(=O)n(C)c3)c(-c3cccc(C#N)c3)nc(N)n2n1 [Example 15, 3-(5-amino-8-(1-methyl-6-oxo-1,6-dihydropyridin-3-yl)-2-(((3-methylpyridin-2-yl)methyl)amino)-[1,2,4]triazolo[1,5-c]pyrimidin-7-yl)benzonitrile]
16 | ≤ 0.01 | ≤ 0.01 | CCn1cc(-c2c(-c3cccc(C#N)c3)nc(N)n3nc(NCc4ncccc4C)nc23)ccc1=O [Example 16, 3-(5-amino-8-(1-ethyl-6-oxo-1,6-dihydropyridin-3-yl)-2-(((3-methylpyridin-2-yl)methyl)amino)-[1,2,4]triazolo[1,5-c]pyrimidin-7-yl)benzonitrile]
17 | ≤ 0.01 | ≤ 0.01 | Cc1cccnc1CNc1nc2c(-c3ccc(=O)n(C)n3)c(-c3cccc(C#N)c3)nc(N)n2n1 [Example 17, 3-(5-amino-8-(1-methyl-6-oxo-1,6-dihydropyridazin-3-yl)-2-(((3-methylpyridin-2-yl)methyl)amino)-[1,2,4]triazolo[1,5-c]pyrimidin-7-yl)benzonitrile]
18 | ≤ 0.01 | ≤ 0.01 | Cc1cccnc1COc1nc2c(-c3ccc(=O)n(C)c3)c(-c3cccc(C#N)c3)nc(N)n2n1 [Example 18, 3-(5-amino-8-(1-methyl-6-oxo-1,6-dihydropyridin-3-yl)-2-((3-methylpyridin-2-yl)methoxy)-[1,2,4]triazolo[1,5-c]pyrimidin-7-yl)benzonitrile]
19 | ≤ 0.01 | ≤ 0.01 | Cc1cccnc1COc1nc2c(-c3ccc(=O)n(C)n3)c(-c3cccc(C#N)c3)nc(N)n2n1 [Example 19, 3-(5-amino-8-(1-methyl-6-oxo-1,6-dihydropyridazin-3-yl)-2-((3-methylpyridin-2-yl)methoxy)-[1,2,4]triazolo[1,5-c]pyrimidin-7-yl)benzonitrile]
20 | ≤ 0.01 | ≤ 0.01 | Cc1cnccc1-c1c(-c2cccc(C#N)c2)nc(N)n2nc(OCc3ncccc3C)nc12 [Example 20, 3-(5-amino-2-((3-methylpyridin-2-yl)methoxy)-8-(3-methylpyridin-4-yl)-[1,2,4]triazolo[1,5-c]pyrimidin-7-yl)benzonitrile]
21 | ≤ 0.01 | 0.01 to 0.1 | Cc1cc(-c2c(-c3cccc(C#N)c3)nc(N)n3nc(OCc4ncccc4C)nc23)cc(C)n1 [Example 21, 3-(5-amino-8-(2,6-dimethylpyridin-4-yl)-2-((3-methylpyridin-2-yl)methoxy)-[1,2,4]triazolo[1,5-c]pyrimidin-7-yl)benzonitrile]
22 | ≤ 0.01 | 0.01 to 0.1 | CCn1cc(-c2c(-c3cccc(C#N)c3)nc(N)n3nc(OCc4ncccc4C)nc23)ccc1=O [Example 22, 3-(5-amino-8-(1-ethyl-6-oxo-1,6-dihydropyridin-3-yl)-2-((3-methylpyridin-2-yl)methoxy)-[1,2,4]triazolo[1,5-c]pyrimidin-7-yl)benzonitrile]

From US20250034153A1, “TRIAZOLOPYRIMIDINES AS A2A / A2B INHIBITORS” (Incyte Corporation, priority 2019, published 2025)
